From patent US20110212968A1, “PHENETHYLAMIDE DERIVATIVES AND THEIR HETEROCYCLIC ANALOGUES” (priority 2008, published 2011)

Tests used:
human orexin-1 receptor = target: T1, human orexin-1 receptor (Homo sapiens, UniProt O43613); assay: Intracellular calcium measurement (FLIPR Tetra), orexin receptor antagonistic activity, OX1; format: cell-based; settings: CHO cells expressing human orexin-1 receptor, 3 nM orexin-A
T1 construct: expressed in transfected cells; host or cells: CHO (Chinese hamster ovary) cells, kept under G418 selection
T1 sequence (O43613 1-425): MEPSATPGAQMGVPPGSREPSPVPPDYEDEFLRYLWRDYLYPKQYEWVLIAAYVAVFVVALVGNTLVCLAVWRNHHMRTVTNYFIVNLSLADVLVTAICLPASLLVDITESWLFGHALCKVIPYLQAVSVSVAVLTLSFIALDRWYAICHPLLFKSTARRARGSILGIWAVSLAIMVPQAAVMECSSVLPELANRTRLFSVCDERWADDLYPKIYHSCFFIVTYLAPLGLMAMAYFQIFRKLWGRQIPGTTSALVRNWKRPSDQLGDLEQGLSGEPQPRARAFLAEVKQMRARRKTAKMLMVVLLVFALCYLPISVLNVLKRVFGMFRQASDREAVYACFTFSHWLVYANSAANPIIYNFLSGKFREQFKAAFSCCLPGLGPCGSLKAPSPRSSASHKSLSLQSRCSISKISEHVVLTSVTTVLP
In short: (§1)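 Recombinant CHO cells expressing human OX1 or OX2, loaded with fluo-4 AM plus probenecid, were preincubated with antagonist 10 min, then stimulated with 3 nM human orexin-A. Peak fluorescence was compared with vehicle; IC50 derived, sometimes normalized to an on-plate reference compound; two pipetting/cell-splitting conditions were used.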

human orexin-2 receptor = target: T2, human orexin-2 receptor (Homo sapiens, UniProt O43614); assay: Intracellular calcium measurement (FLIPR Tetra), orexin receptor antagonistic activity, OX2; format: cell-based; settings: CHO cells expressing human orexin-2 receptor, 3 nM orexin-A
T2 construct: expressed in transfected cells; host or cells: CHO (Chinese hamster ovary) cells, kept under G418 selection
T2 sequence (O43614 1-444): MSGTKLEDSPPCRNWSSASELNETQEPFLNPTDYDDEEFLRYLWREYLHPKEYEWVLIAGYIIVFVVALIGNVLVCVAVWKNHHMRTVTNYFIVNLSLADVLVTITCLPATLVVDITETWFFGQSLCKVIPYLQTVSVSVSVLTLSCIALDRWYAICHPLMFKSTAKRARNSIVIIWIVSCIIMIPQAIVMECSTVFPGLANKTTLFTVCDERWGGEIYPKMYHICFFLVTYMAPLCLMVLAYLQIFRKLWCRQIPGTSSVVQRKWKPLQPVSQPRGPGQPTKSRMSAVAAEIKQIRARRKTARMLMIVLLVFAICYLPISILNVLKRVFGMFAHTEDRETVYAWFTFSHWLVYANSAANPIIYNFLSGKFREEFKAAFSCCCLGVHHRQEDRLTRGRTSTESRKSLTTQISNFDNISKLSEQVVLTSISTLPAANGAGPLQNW
In short: as §1

[1] = conditions B, normalized (*) using IC50 of on-plate reference compound

Row | Compound | IC50 (human orexin-1 receptor; [1]) [µM] | IC50 (human orexin-2 receptor; [1]) [µM] | IC50 (human orexin-1 receptor; conditions B) [µM] | IC50 (human orexin-2 receptor; conditions B) [µM] | other results
1 | COc1ccc(-c2sc(C)nc2C(=O)N(CCc2c[nH]c3ccc(F)cc23)CC(=O)N(C)C)cn1 [Example 303, 5-(6-Methoxy-pyridin-3-yl)-2-methyl-thiazole-4-carboxylic acid dimethylcarbamoylmethyl-[2-(5-fluoro-1H-indol-3-yl)-ethyl]-amide] | 2.35 | 0.551 |  |  | 
2 | COCCN(CCc1ccc(OC)c(OC)c1)C(=O)c1nc(N)sc1-c1cccc(C)c1 [Example 128, 2-Amino-5-m-tolyl-thiazole-4-carboxylic acid [2-(3,4-dimethoxy-phenyl)-ethyl]-(2-methoxy-ethyl)-amide] |  |  | 0.071 | 0.004 | 
3 | COc1ccc(CCN(CC2CC2)C(=O)c2sc(C)nc2-c2ccc(C)cc2)cc1OC [Example 49, 2-Methyl-4-p-tolyl-thiazole-5-carboxylic acid cyclopropylmethyl-[2-(3,4-dimethoxy-phenyl)-ethyl]-amide] |  |  |  |  | IC50 (human orexin-1 receptor; conditions A): 4.23 µM; IC50 (human orexin-2 receptor; conditions A): 0.022 µM
4 | CCCN(CCc1c[nH]c2ccc(F)cc12)C(=O)c1ncccc1-c1ccc(OC)nc1 [Example 311] | 0.147 | 0.016 |  |  | 
5 | COc1ccc(CCN(CC2CC2)C(=O)c2nc(C)sc2-c2ccc(C)c(C)c2)cn1 [Example 254, 5-(3,4-Dimethyl-phenyl)-2-methyl-thiazole-4-carboxylic acid cyclopropylmethyl-[2-(6-methoxy-pyridin-3-yl)-ethyl]-amide] |  |  | 1.77 | 0.232 | 
6 | COc1ccc(CCN(CC2CC2)C(=O)c2snnc2-c2ccccc2)cc1OC [Example 53, 4-Phenyl-[1,2,3]thiadiazole-5-carboxylic acid cyclopropylmethyl-[2-(3,4-dimethoxy-phenyl)-ethyl]-amide] |  |  |  |  | IC50 (human orexin-1 receptor; conditions A): 8.67 µM; IC50 (human orexin-2 receptor; conditions A): 0.081 µM
7 | COc1ccc(CCN(C)C(=O)c2nc(N)sc2-c2cccc(C)c2)cc1OC [Example 104, 2-Amino-5-m-tolyl-thiazole-4-carboxylic acid [2-(3,4-dimethoxy-phenyl)-ethyl]-methyl-amide] |  |  | 0.405 | 0.005 | 
8 | COc1ccc(-c2cccnc2C(=O)N(CCc2c[nH]c3ccc(F)cc23)CC(F)(F)F)cn1 [Example 312] | 0.346 | 0.076 |  |  | 
9 | COc1nc(C(=O)N(CC2CC2)CC(O)c2ccc(OC)c(OC)c2)c(-c2cccc(C)c2)s1 (centres unmarked) [Example 78, 2-Methoxy-5-m-tolyl-thiazole-4-carboxylic acid cyclopropylmethyl-[2-(3,4-dimethoxy-phenyl)-2-hydroxy-ethyl]-amide] |  |  |  |  | IC50 (human orexin-1 receptor; conditions A): 1.12 µM; IC50 (human orexin-2 receptor; conditions A): 0.141 µM
10 | Cc1nc(C(=O)N(CCc2ccc(C(F)(F)F)cc2)CC2CC2)c(-c2ccc(C)c(C)c2)s1 [Example 192, 5-(3,4-Dimethyl-phenyl)-2-methyl-thiazole-4-carboxylic acid cyclopropylmethyl-[2-(4-trifluoromethyl-phenyl)-ethyl]-amide] |  |  | > 10 | 0.719 | 
11 | COc1ccc(CCN(CC(C)C)C(=O)c2nc(N)sc2-c2cccc(C)c2)cc1OC [Example 113, 2-Amino-5-m-tolyl-thiazole-4-carboxylic acid [2-(3,4-dimethoxy-phenyl)-ethyl]-isobutyl-amide] |  |  | 0.328 | 0.008 | 
12 | 2-Methyl-5-m-tolyl-thiazole-4-carboxylic acid [2-cyclopropyl-amino-2-(3,4-dimethoxy-phenyl)-ethyl]-cyclopropylmethyl-amide [Example 432] |  |  | 0.234 | 0.075 | 
13 | COc1ccc(CCN(CC2CC2)C(=O)c2cccnc2-c2cccc(C)c2)cc1OC [Example 394, N-Cyclopropylmethyl-N-[2-(3,4-dimethoxy-phenyl)-ethyl]-2-m-tolyl-nicotinamide] |  |  | 0.156 | 0.004 | 
14 | COc1ccc(-c2cccnc2C(=O)N(CCc2c[nH]c3ccc(F)cc23)CC2CC2)cn1 [Example 400, 6′-Methoxy-[3,3′]bipyridinyl-2-carboxylic acid cyclopropylmethyl-[2-(5-fluoro-1H-indol-3-yl)-ethyl]-amide] | 0.062 | 0.011 |  |  | 
15 | Cc1cccc(-c2sc(N)nc2C(=O)N(CCc2c[nH]c3ccc(F)cc23)CC2CC2)c1 [Example 232, 2-Amino-5-m-tolyl-thiazole-4-carboxylic acid cyclopropylmethyl-[2-(5-fluoro-1H-indol-3-yl)-ethyl]-amide] |  |  | 0.007 | 0.016 | 

Second part, led by results:

Row | IC50 (human orexin-1 receptor; [1]) [µM] | IC50 (human orexin-2 receptor; [1]) [µM] | IC50 (human orexin-1 receptor; conditions B) [µM] | IC50 (human orexin-2 receptor; conditions B) [µM] | Compound | other results
16 | 0.404 | 0.038 |  |  | COCCOc1cccc(-c2sc(C)nc2C(=O)N(CCc2c[nH]c3ccccc23)CC(=O)OC)c1 [Example 587, ([2-(1H-Indol-3-yl)-ethyl]-{5-[3-(2-methoxy-ethoxy)-phenyl]-2-methyl-thiazole-4-carbonyl}-amino)-acetic acid methyl ester] | 
17 | 0.383 | 0.035 |  |  | Cc1cccc(-c2oc(C3CC3)nc2C(=O)N(CCc2c[nH]c3ccccc23)CC2CC2)c1 [Example 607, 2-Cyclopropyl-5-m-tolyl-oxazole-4-carboxylic acid cyclopropylmethyl-[2-(1H-indol-3-yl)-ethyl]-amide] | 
18 | 3.83 | 0.23 |  |  | O=C(c1ncccc1-c1cc(Cl)cnc1F)N(CCc1c[nH]c2ccc(F)cc12)CC1CC1 [Example 403, 5′-Chloro-2′-fluoro-[3,3′]bipyridinyl-2-carboxylic acid cyclopropylmethyl-[2-(5-fluoro-1H-indol-3-yl)-ethyl]-amide] | 
19 | 2.51 | 0.1 |  |  | Cc1nc(C(=O)N(CCc2c[nH]c3ccc(F)cc23)CC2CC2)c(-c2ccc(C#N)c(F)c2)s1 [Example 419, 5-(4-Cyano-3-fluoro-phenyl)-2-methyl-thiazole-4-carboxylic acid cyclopropylmethyl-[2-(5-fluoro-1H-indol-3-yl)-ethyl]-amide] | 
20 | 0.024 | 0.002 |  |  | COc1ccc(-c2nccnc2C(=O)N(CCc2c[nH]c3c(C)cccc23)CC2CC2)cc1 [Example 436, 3-(4-Methoxy-phenyl)-pyrazine-2-carboxylic acid cyclopropylmethyl-[2-(7-methyl-1H-indol-3-yl)-ethyl]-amide] | 
21 | 0.468 | 0.01 |  |  | COC(=O)CN(CCc1c[nH]c2ccccc12)C(=O)c1nc(C)sc1-c1cccc(Br)c1 [Example 590, {[5-(3-Bromo-phenyl)-2-methyl-thiazole-4-carbonyl]-[2-(1H-indol-3-yl)-ethyl]-amino}-acetic acid methyl ester] | 
22 | 2.93 | 0.151 |  |  | CCN(CCc1c[nH]c2ccccc12)C(=O)c1cncnc1-c1cccc(OC)c1 [Example 541, 4-(3-Methoxy-phenyl)-pyrimidine-5-carboxylic acid ethyl-[2-(1H-indol-3-yl)-ethyl]-amide] | 
